In experiment [1] the target is T1, Serine/threonine-protein kinase ICK (Homo sapiens) (UniProt Q9UPZ9).
T1 sequence (whole entry): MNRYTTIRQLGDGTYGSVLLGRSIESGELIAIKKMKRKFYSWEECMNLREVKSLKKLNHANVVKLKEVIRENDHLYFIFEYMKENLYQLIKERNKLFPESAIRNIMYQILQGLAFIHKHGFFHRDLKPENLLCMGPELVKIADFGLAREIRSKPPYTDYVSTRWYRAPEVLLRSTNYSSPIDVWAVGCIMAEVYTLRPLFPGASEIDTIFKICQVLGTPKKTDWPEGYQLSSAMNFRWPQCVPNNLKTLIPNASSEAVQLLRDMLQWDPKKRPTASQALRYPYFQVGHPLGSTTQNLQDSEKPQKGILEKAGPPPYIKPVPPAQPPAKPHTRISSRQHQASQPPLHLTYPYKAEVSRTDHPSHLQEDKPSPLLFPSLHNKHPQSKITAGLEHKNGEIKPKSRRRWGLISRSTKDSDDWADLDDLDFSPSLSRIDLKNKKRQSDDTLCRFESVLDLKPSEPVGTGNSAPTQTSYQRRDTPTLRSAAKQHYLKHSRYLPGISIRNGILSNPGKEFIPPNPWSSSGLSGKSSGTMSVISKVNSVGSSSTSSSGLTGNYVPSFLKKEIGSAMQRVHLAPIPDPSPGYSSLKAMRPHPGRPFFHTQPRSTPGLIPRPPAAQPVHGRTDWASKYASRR
The experiment in a line: Selectivity interaction (KinomeScan (DiscoverX)) EUB0001619a ICK. The conditions noted are these: at 1 µM.

Experiment [2] concerns the target T2, Protein kinase C iota type (Homo sapiens) (UniProt P41743).
T2 sequence (whole entry): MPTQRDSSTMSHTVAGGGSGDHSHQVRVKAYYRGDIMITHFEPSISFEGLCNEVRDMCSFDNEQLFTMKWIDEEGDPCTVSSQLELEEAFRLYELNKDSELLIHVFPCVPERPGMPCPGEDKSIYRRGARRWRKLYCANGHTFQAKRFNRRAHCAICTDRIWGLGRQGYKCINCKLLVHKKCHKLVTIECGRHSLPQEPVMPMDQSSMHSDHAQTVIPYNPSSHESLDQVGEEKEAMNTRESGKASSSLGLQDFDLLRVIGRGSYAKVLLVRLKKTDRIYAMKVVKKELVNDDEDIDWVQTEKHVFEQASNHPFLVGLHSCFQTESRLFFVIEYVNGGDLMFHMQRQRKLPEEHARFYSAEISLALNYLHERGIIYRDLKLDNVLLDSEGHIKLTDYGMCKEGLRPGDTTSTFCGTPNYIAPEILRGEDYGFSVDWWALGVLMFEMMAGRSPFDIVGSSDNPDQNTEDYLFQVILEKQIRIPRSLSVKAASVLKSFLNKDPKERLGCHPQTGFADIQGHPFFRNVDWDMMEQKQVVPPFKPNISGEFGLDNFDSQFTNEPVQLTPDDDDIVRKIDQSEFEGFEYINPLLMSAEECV
The experiment in a line: Selectivity interaction (KinomeScan (DiscoverX)) EUB0000695a PRKCI. Particulars: at 100 nM.

The test system of experiment [3] is Mast/stem cell growth factor receptor Kit (Homo sapiens), P10721 [D816V]. Particulars: at 10 µM.
Experiment [4] concerns the target MAP/microtubule affinity-regulating kinase 3 (Homo sapiens) (UniProt P27448). The experiment in a line: Selectivity interaction (ActivX KiNativ screen (kinase selectivity in THP-1 cell lysates)) EUB0000639a MARK3. It is filed as subcellular. Particulars: lysate, at 1 µM.
In experiment [5] the target is T3, Serine/threonine-protein kinase RIO3 (Homo sapiens) (UniProt O14730).
T3 sequence (whole entry): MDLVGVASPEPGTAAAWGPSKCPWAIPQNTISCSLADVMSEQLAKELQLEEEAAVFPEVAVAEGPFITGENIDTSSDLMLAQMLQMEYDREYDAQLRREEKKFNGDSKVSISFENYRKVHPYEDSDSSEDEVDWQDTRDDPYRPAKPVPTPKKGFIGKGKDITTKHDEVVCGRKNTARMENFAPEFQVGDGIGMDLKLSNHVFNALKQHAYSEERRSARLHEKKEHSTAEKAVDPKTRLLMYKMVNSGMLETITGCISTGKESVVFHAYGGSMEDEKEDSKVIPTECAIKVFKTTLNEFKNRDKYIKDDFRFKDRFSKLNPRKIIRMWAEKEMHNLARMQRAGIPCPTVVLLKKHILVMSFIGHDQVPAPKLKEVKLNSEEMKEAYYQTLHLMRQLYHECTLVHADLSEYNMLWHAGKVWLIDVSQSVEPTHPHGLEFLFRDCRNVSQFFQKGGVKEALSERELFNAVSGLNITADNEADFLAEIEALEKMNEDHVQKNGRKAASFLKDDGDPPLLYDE
The experiment in a line: Selectivity interaction (Ambit KINOMEscan and KiNATiv profiling in Jurkat cells) EUB0000090b RIOK3. The conditions noted are these: at 1 µM. It is filed as cell-based.

In experiment [6] the target is T4, Dual specificity protein kinase TTK (Homo sapiens) (UniProt P33981).
T4 sequence (whole entry): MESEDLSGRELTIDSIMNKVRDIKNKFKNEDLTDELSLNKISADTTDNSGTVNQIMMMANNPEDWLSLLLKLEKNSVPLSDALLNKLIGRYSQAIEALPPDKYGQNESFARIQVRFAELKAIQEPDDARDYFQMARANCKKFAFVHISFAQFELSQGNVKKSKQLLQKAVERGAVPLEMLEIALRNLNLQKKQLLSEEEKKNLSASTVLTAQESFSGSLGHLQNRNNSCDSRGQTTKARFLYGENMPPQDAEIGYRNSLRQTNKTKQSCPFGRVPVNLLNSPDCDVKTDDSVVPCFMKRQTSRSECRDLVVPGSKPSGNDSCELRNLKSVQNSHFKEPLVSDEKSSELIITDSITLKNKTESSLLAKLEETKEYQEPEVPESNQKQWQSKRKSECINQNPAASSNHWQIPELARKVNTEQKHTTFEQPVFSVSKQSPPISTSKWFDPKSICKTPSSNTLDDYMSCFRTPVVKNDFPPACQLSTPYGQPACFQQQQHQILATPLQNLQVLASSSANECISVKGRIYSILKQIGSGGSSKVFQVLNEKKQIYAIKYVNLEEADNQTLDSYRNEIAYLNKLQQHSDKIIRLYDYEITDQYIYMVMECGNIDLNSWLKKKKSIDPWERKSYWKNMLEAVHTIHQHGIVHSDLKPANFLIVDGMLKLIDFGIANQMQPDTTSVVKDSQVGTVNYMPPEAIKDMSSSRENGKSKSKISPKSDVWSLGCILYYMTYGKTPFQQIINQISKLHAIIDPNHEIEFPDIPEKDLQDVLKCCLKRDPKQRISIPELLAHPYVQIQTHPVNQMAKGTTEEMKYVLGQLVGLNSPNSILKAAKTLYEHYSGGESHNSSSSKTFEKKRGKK
The experiment in a line: Selectivity interaction (KinomeScan (DiscoverX)) EUB0001049a TTK. The conditions noted are these: at 1 µM.

The target in experiment [7] is Casein kinase II subunit alpha (Homo sapiens, UniProt P68400). The experiment in a line: Selectivity interaction (KinomeScan (DiscoverX)) EUB0000229b CSNK2A1. Particulars: at 10 µM.
Experiment [8] deals with Phosphatidylinositol 4-phosphate 5-kinase type-1 gamma (Homo sapiens) (UniProt O60331). The experiment in a line: Selectivity interaction (KinomeScan (DiscoverX)) EUB0000229b PIP5K1C. Particulars: at 10 µM.
Sequence of Phosphatidylinositol 4-phosphate 5-kinase type-1 gamma (Homo sapiens) (O60331 whole entry): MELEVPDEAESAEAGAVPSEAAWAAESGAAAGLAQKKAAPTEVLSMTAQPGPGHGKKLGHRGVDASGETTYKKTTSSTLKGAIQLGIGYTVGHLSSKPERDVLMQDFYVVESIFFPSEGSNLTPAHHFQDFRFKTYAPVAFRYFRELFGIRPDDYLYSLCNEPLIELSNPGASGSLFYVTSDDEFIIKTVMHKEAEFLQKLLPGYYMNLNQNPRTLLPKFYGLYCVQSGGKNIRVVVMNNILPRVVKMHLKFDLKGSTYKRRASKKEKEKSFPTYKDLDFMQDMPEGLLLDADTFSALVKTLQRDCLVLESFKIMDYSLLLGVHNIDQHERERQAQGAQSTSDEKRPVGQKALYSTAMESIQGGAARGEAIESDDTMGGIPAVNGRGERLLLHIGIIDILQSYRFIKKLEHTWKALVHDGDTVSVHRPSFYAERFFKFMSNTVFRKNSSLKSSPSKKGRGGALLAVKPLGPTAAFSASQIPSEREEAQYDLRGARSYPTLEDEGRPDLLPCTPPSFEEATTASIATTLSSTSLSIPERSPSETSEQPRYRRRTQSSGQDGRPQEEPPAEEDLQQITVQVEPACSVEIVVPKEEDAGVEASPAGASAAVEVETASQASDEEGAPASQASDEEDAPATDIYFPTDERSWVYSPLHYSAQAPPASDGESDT

Sequence of Casein kinase II subunit alpha (P68400 whole entry, looked up): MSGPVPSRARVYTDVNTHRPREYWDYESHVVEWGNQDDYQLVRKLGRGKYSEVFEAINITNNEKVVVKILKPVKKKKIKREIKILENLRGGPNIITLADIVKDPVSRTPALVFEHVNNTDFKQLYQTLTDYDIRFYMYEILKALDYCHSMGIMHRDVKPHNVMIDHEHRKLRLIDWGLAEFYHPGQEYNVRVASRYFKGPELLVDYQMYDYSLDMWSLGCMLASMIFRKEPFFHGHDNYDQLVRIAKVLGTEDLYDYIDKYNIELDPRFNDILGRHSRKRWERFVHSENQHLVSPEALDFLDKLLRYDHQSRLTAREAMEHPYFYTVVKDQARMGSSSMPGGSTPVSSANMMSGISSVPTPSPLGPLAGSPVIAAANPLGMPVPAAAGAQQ
Sequence of MAP/microtubule affinity-regulating kinase 3 (Homo sapiens) (P27448 whole entry, looked up): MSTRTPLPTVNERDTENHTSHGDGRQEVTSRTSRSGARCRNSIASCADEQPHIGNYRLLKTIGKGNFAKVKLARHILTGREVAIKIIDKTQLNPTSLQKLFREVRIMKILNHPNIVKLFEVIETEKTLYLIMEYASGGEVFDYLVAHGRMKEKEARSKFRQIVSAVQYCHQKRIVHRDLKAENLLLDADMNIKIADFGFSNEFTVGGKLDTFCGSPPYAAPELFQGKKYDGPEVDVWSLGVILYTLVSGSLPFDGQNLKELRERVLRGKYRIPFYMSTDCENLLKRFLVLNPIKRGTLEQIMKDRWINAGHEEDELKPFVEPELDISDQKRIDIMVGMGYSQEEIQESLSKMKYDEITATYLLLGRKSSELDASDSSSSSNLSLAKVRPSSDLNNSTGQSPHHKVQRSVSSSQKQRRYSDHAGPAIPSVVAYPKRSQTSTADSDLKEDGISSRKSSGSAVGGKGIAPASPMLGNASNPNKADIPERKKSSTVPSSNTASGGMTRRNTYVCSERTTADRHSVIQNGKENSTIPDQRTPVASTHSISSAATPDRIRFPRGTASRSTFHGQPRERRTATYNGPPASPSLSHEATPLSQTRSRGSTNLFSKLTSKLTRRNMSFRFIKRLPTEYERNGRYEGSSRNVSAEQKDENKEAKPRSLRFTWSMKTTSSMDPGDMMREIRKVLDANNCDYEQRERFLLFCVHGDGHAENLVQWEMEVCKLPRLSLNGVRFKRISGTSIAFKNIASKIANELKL
Sequence of Mast/stem cell growth factor receptor Kit (Homo sapiens), P10721 [D816V] (P10721 whole entry D816V): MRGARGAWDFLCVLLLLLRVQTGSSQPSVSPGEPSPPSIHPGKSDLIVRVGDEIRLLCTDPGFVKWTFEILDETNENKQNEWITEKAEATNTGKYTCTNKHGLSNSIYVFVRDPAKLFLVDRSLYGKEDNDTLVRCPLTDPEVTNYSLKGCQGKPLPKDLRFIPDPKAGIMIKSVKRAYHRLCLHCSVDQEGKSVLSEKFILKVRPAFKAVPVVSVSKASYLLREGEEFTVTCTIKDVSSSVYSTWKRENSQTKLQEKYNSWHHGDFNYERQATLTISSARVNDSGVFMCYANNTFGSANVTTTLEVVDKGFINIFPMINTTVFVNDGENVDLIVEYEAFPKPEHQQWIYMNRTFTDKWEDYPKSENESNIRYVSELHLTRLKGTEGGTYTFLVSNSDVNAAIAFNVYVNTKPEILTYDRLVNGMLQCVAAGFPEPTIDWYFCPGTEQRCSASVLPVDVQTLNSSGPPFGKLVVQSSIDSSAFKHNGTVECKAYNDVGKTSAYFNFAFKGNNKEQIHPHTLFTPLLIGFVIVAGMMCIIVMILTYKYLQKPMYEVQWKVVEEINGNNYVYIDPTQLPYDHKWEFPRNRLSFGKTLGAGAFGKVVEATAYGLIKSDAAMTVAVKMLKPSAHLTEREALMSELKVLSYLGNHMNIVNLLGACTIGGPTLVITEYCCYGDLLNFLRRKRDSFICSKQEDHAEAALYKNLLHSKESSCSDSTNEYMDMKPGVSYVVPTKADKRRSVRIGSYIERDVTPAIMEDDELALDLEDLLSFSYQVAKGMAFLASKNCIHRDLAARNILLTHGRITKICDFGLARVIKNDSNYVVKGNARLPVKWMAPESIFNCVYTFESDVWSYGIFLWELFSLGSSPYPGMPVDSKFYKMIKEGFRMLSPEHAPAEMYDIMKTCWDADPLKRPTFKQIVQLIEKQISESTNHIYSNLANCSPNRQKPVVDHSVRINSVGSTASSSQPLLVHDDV

Turning to `N#Cc1cccc(-c2c[nH]c3ncnc(N4CCOCC4)c23)c1`, the % of control in experiment [1] amounted to 96%.

Turning to `Cc1cc(F)c(C(=O)Nc2cccc(-c3nncn3C(C)C)n2)cc1-n1cnc(C2CC2)c1`, the % of control in experiment [2] came to 95%.

`Cc1cc([C@@H](C)Nc2ccccc2C(=O)O)c2nc(N3CCOCC3)cc(=O)n2c1` [AZD-6482] came in with a % of control in experiment [3] of 81%.

Compound `CC[C@@H]1[C@H](F)C(=O)N[C@@H]1COc1nccc2cc(C(N)=O)c(OC)cc12` [ZIMLOVISERTIB] had a % of inhibition in experiment [4] of 21.6%.

In the case of `CN(C)C/C=C/C(=O)Nc1ccc(C(=O)N2CCCC(Nc3ncc(Cl)c(-c4c[nH]c5ccccc45)n3)C2)cc1` (stereo not drawn), the % of control in experiment [5] is 69%.

In experiment [6], `COc1cc(Nc2nc(C)cc(-c3cnn4nc(OC)ccc34)n2)cc(C(F)(F)F)c1` gave a % of control of 90%.

Take `COc1cc(N(C)c2ccnc3ccc(C(F)(F)F)cc23)cc(OC)c1OC`: the figures for the % binding in experiment [7] and in experiment [8] were 67% and 53%, respectively.

The record behind these values is ChEMBL document CHEMBL5465560, “Selectivity Literature for EUbOPEN Chemogenomic Library” (2024).
